In patent publication CN116444420A, “β-catenin/BCL9蛋白蛋白相互作用的小分子抑制剂及其应用” (Shanghai Pharmaceutical Industry Research Institute Co ltd, priority 2021, dated 2023):

Experiments:
[1] = target: T1, hERG potassium channel [hERG钾离子通道] (Homo sapiens, UniProt Q12809); assay: hERG potassium channel, whole-cell patch clamp (Example 73); format: cell-based; conditions: whole-cell patch clamp, HEK293 cells stably transfected, room temperature; read-out: hERG IC50
T1 construct: expressed in transfected cells; host or cells: HEK293 (stably transfected)
T1 sequence (Q12809 whole entry): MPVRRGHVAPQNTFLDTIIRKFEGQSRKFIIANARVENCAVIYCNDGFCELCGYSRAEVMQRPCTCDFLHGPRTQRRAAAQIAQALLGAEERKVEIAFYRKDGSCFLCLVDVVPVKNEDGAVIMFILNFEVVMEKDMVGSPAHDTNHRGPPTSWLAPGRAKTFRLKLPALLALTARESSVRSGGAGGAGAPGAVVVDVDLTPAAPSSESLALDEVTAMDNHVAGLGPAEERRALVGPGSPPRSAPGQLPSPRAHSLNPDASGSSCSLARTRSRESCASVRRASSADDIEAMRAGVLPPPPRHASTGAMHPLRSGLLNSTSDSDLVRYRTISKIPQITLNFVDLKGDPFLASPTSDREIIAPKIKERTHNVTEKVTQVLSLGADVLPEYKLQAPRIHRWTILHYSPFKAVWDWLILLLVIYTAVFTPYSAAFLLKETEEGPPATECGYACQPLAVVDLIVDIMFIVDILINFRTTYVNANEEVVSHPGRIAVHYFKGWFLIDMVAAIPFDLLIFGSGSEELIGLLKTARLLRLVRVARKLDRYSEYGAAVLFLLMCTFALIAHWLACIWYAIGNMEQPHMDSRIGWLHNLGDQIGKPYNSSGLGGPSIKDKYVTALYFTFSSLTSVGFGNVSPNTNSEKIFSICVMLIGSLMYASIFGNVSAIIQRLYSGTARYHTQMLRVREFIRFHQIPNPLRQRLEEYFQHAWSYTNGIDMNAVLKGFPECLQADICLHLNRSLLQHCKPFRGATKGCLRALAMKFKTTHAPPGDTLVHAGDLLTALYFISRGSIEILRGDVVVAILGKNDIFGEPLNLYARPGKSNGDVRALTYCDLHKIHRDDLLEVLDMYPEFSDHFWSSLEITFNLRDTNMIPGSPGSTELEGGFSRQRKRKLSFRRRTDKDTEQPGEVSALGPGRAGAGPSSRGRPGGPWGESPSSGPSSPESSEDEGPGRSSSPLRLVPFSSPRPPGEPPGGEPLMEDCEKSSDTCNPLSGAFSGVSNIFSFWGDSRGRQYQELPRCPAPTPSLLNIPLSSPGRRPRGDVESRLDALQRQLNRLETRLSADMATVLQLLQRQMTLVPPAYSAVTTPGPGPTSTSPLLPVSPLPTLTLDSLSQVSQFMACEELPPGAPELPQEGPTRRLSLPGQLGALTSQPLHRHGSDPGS

[2] = target: T2, β-catenin/BCL9 protein-protein [β-catenin/BCL9蛋白-蛋白] (Homo sapiens, UniProt P35222); assay: β-catenin/BCL9 protein-protein affinity, fluorescence polarisation (Example 71); format: binding; conditions: better than compound c
T2 construct: β-catenin(1-781)
T2 sequence (P35222 1-781): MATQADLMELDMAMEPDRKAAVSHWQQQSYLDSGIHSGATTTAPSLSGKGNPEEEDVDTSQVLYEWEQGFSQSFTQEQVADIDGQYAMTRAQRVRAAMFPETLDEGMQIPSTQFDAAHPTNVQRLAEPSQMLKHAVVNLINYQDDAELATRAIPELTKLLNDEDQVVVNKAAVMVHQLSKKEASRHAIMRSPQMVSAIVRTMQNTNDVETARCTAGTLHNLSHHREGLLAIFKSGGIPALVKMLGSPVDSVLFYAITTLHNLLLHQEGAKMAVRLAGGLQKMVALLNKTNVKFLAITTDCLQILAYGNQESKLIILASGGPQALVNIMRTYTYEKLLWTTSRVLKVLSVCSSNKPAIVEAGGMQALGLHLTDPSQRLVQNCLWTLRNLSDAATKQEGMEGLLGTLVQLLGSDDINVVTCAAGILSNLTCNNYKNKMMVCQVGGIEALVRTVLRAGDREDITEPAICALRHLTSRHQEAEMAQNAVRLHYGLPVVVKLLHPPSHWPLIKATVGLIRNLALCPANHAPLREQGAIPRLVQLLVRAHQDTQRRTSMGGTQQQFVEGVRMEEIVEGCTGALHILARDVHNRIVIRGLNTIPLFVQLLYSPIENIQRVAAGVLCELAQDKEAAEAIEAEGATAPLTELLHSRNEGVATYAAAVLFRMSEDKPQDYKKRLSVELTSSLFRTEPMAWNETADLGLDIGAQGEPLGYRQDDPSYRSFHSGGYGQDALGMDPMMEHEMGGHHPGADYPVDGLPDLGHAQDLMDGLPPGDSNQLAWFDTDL

[3] = Liver microsome metabolic stability (Example 75); format: in vitro ADME; conditions: Table 4; 0.5 mg/mL liver microsomal protein, 1μM, NADPH, 37℃

| Compound | IC50 [1] | affinity activity compared with reference compound c [2] | liver microsome metabolic stability [3] |
| --- | --- | --- | --- |
| CC(C)(Oc1cccc(C2CCCN(C(=O)c3cccc(-c4ccc(F)c(F)c4)c3)C2)c1)C(=O)O (centres unmarked) [化合物II-2, 2-(3-(1-(3',4'-二氟-[1,1'-联苯基]-3-羰基)哌啶-3-基)苯氧基)-2-甲基丙酸] | > 10 µM | – | – |
| CC(C)(Oc1cccc(C2CCCN(C(=O)c3cccc(-c4ccccc4)c3)C2)c1)C(=O)O (centres unmarked) [化合物II-9, 2-(3-(1-([1,1'-联苯基]-3-羰基)哌啶-3-基)苯氧基)-2-甲基丙酸] | – | 亲和活性更优 | – |
| CC(C)c1ccc(-c2cccc(S(=O)(=O)N3CCCC(c4cccc(OC(C)(C)C(=O)O)c4)C3)c2)cc1 (centres unmarked) [化合物II-13, 2-(3-(1-((4'-异丙基-[1,1'-联苯基]-3-基)磺酰基)哌啶-3-基)苯氧基)-2-甲基丙酸] | > 10 µM | 亲和活性更优 | 肝微粒体代谢稳定 |
| CC(C)(Oc1cccc(C2CCCN(S(=O)(=O)c3cccc(-c4ccsc4)c3)C2)c1)C(=O)O (centres unmarked) [化合物II-14, 2-甲基-2-(3-(1-((3-(噻吩-3-基)苯基)磺酰基)哌啶-3-基)苯氧基)丙酸] | > 10 µM | – | – |
| CC(C)(Oc1cccc(C2CCCN(S(=O)(=O)c3cccc(C4CCCCC4)c3)C2)c1)C(=O)O (centres unmarked) [化合物II-16, 2-(3-(1-((3-环己基苯基)磺酰基)哌啶-3-基)苯氧基)-2-甲基丙酸] | – | 亲和活性更优 | – |
| CC(C)(Oc1cccc(C2CCCN(S(=O)(=O)c3cccc(-c4cccs4)c3)C2)c1)C(=O)O (centres unmarked) [化合物II-17, 2-甲基-2-(3-(1-((3-(噻吩-2-基)苯基)磺酰基)哌啶-3-基)苯氧基)丙酸] | – | 亲和活性更优 | – |
| CC(C)(Oc1cccc(C2CCCN(C(=O)c3cccc(-c4ccc(F)c(F)c4)c3)C2)c1)C(=O)NS(=O)(=O)c1ccccc1 (centres unmarked) [化合物II-29, 2-(3-(1-(3',4'-二氟-[1,1'-联苯基]-3-羰基)哌啶-3-基)苯氧基)-2-甲基-N-(苯磺酰基)丙酰胺] | – | 亲和活性更优 | – |
| CC(C)c1ccc(-c2cccc(S(=O)(=O)N3CCCC(c4cccc(OC(C)(C)C(=O)NS(=O)(=O)c5ccc(C#N)cc5)c4)C3)c2)cc1 (centres unmarked) [化合物II-37, N-((4-氰基苯基)磺酰基)-2-(3-(1-((4'-异丙基-[1,1'-联苯]-3-基)磺酰)哌啶-3-基(苯氧基)-2-甲基丙酰胺] | – | 亲和活性更优 | – |
| CC(C)c1ccc(-c2cccc(S(=O)(=O)N3CCCC(c4cccc(OC(C)(C)C(=O)NS(=O)(=O)c5cccc(C(F)(F)F)c5)c4)C3)c2)cc1 (centres unmarked) [化合物II-40, 2-(3-(1-((4'-异丙基-[1,1'-联苯]-3-基)磺酰基)哌啶-3-基(苯氧基)-2-甲基-N-((3-(三氟甲基)苯基)磺酰)丙酰胺] | – | 亲和活性更优 | – |
| CC(C)c1ccc(-c2cccc(S(=O)(=O)N3CCCC(c4cccc(OC(C)(C)C(=O)NS(=O)(=O)c5ccc([N+](=O)[O-])cc5)c4)C3)c2)cc1 (centres unmarked) [化合物II-42, 2-(3-(1-((4'-异丙基-[1,1'-联苯]-3-基)磺酰基)哌啶-3-基苯氧基)-2-甲基-N-((4-硝基苯基)磺酰)丙酰胺] | – | 亲和活性更优 | – |
| CC(C)c1ccc(-c2cccc(S(=O)(=O)N3CCCC(c4cccc(OC(C)(C)C(=O)NS(=O)(=O)c5ccc(F)cc5)c4)C3)c2)cc1 (centres unmarked) [化合物II-43, N-((4-氟苯基)磺酰基)-2-(3-(1-((4'-异丙基-[1,1'-联苯]-3-基)磺酰)哌啶-3-基苯氧基)-2-甲基丙酰胺] | – | 亲和活性更优 | – |
| CC(C)c1ccc(-c2cccc(S(=O)(=O)N3CCCC(c4cccc(OC(C)(C)C(=O)NS(=O)(=O)c5cccc(F)c5)c4)C3)c2)cc1 (centres unmarked) [化合物II-44, N-((3-氟苯基)磺酰基)-2-(3-(1-((4'-异丙基-[1,1'-联苯]-3-基)磺酰)哌啶-3-基苯氧基)-2-甲基丙酰胺] | – | 亲和活性更优 | – |
| CC(C)c1ccc(-c2cccc(S(=O)(=O)N3CCCC(c4cccc(OC(C)(C)C(=O)NS(=O)(=O)c5cccc([N+](=O)[O-])c5)c4)C3)c2)cc1 (centres unmarked) [化合物II-45, 2-(3-(1-((4'-异丙基-[1,1'-联苯]-3-基)磺酰基)哌啶-3-基苯氧基)-2-甲基-N-((3-硝基苯基)磺酰)丙酰胺] | – | 亲和活性更优 | – |
| CC(C)c1ccc(-c2cccc(S(=O)(=O)N3CCCC(c4cccc(OC(C)(C)C(=O)NS(=O)(=O)c5cccc(C#N)c5)c4)C3)c2)cc1 (centres unmarked) [化合物II-46, N-((3-氰基苯基)磺酰基)-2-(3-(1-((4'-异丙基-[1,1'-联苯]-3-基)磺酰)哌啶-3-基苯氧基)-2-甲基丙酰胺] | – | 亲和活性更优 | – |
| CC(C)c1ccc(-c2cccc(S(=O)(=O)N3CCCC(c4cccc(OC(C)(C)C(=O)NS(=O)(=O)c5ccc(OC(F)(F)F)cc5)c4)C3)c2)cc1 (centres unmarked) [化合物II-48, 2-(3-(1-((4'-异丙基-[1,1'-联苯]-3-基)磺酰基)哌啶-3-基苯氧基)-2-甲基-N-((4-(三氟甲氧基)苯基)磺酰)丙酰胺] | – | 亲和活性更优 | – |
| CC(=O)Nc1ccc(S(=O)(=O)NC(=O)C(C)(C)Oc2cccc(C3CCCN(S(=O)(=O)c4cccc(-c5ccc(C(C)C)cc5)c4)C3)c2)cc1 (centres unmarked) [化合物II-49, N-((4-乙酰氨基苯基)磺酰基)-2-(3-(1-((4'-异丙基-[1,1'-联苯]-3-基)磺酰)哌啶-3-基(苯氧基)-2-甲基丙酰胺] | – | 亲和活性更优 | – |
| CC(C)c1ccc(-c2cccc(S(=O)(=O)N3CCCC(c4cccc(OC(C)(C)C(=O)NS(=O)(=O)c5ccc6ccccc6c5)c4)C3)c2)cc1 (centres unmarked) [化合物II-50, 2-(3-(1-((4'-异丙基-[1,1'-联苯]-3-基)磺酰基)哌啶-3-基(苯氧基)-2-甲基-N-(萘-2-基磺酰)丙酰胺] | – | 亲和活性更优 | – |
| COc1cccc(S(=O)(=O)NC(=O)C(C)(C)Oc2cccc(C3CCCN(S(=O)(=O)c4cccc(-c5ccc(C(C)C)cc5)c4)C3)c2)c1 (centres unmarked) [化合物II-51, 2-(3-(1-((4'-异丙基-[1,1'-联苯]-3-基)磺酰基)哌啶-3-基(苯氧基)-N-((3-甲氧基苯基)磺酰)-2-甲基丙酰胺] | – | 亲和活性更优 | – |
| CC(C)c1ccc(-c2cccc(S(=O)(=O)N3CCCC(c4cccc(OC(C)(C)C(=O)NS(=O)(=O)c5ccc(C(F)(F)F)cc5Cl)c4)C3)c2)cc1 (centres unmarked) [化合物II-52, N-((2-氯-4-(三氟甲基)苯基)磺酰基)-2-(3-(1-((4'-异丙基-[1,1'-联苯]-3-基)磺酰)哌啶-3-基苯氧基)-2-甲基丙酰胺] | – | 亲和活性更优 | – |
| CC(C)(Oc1cccc(C2CCCN(C(=O)c3cccc(-c4ccc(F)c(F)c4)c3)C2)c1)C(=O)NS(=O)(=O)c1ccc(C(F)(F)F)cc1 (centres unmarked) [化合物II-55, 2-(3-(1-(3',4'-二氟-[1,1'-联苯]-3-羰基)哌啶-3-基)苯氧基)-2-甲基-N-((4-(三氟甲基)苯基)磺酰基)丙酰胺] | – | 亲和活性更优 | – |
| CC(C)(Oc1cccc(C2CCCN(C(=O)c3cccc(-c4ccc(F)c(F)c4)c3)C2)c1)C(=O)NS(=O)(=O)c1ccc2ccccc2c1 (centres unmarked) [化合物II-56, 2-(3-(1-(3',4'-二氟-[1,1'-联苯]-3-羰基)哌啶-3-基)苯氧基)-2-甲基-N-(萘-2-基磺酰基)丙酰胺] | – | 亲和活性更优 | – |
| CC(C)(Oc1cccc(C2CCCN(C(=O)c3cccc(-c4ccc(F)c(F)c4)c3)C2)c1)C(=O)N1CCC(=O)CC1 (centres unmarked) [化合物II-57, 1-(2-(3-(1-(3',4'-二氟-[1,1'-联苯]-3-羰基)哌啶-3-基)苯氧基)-2-甲基丙酰基)哌嗪-4-酮] | – | 亲和活性更优 | – |
| CC(C)(Oc1cccc(C2CCCN(C(=O)c3cccc(-c4ccc(F)c(F)c4)c3)C2)c1)C(=O)N1CCNCC1.Cl (centres unmarked) [化合物II-58, 4-(2-(3-(1-(3',4'-二氟-[1,1'-联苯]-3-羰基)哌啶-3-基)苯氧基)-2-甲基丙酰基)哌嗪-1-氯化铵] | – | 亲和活性更优 | – |
| CC(C)(Oc1cccc(C2CCCN(C(=O)c3cccc(-c4ccc(F)c(F)c4)c3)C2)c1)C(=O)N1CCC(N)CC1.Cl (centres unmarked) [化合物II-59, 1-(2-(3-(1-(3',4'-二氟-[1,1'-联苯]-3-羰基)哌啶-3-基)苯氧基)-2-甲基丙酰基)哌嗪-4-氯化铵] | – | 亲和活性更优 | – |
| CC(C)(Oc1cccc(C2CCCN(C(=O)c3cccc(-c4ccc(F)c(F)c4)c3)C2)c1)C(=O)N1CCOCC1 (centres unmarked) [化合物II-60, 2-(3-(1-(3',4'-二氟-[1,1'-联苯]-3-羰基)哌啶-3-基)苯氧基)-2-甲基-1-吗啉丙-1-酮] | – | 亲和活性更优 | – |
| CC(C)(Oc1cccc(C2CCCN(C(=O)c3cccc(-c4ccc(F)c(F)c4)c3)C2)c1)C(=O)NC1CCNCC1.Cl (centres unmarked) [化合物II-61, 4-(2-(3-(1-(3',4'-二氟-[1,1'-联苯]-3-羰基)哌啶-3-基)苯氧基)-2-甲基丙酰胺)哌啶-1-氯化铵] | – | 亲和活性更优 | – |
| CC(C)(Oc1cccc(C2CCCN(C(=O)c3cccc(-c4ccc(F)c(F)c4)c3)C2)c1)C(=O)N1CCC(O)CC1 (centres unmarked) [化合物II-63, 2-(3-(1-(3',4'-二氟-[1,1'-联苯]-3-羰基)哌啶-3-基)苯氧基)-1-(4-羟基哌啶-1-基)-2-甲基丙-1-酮] | – | 亲和活性更优 | – |
| CC(C)(Oc1cccc(C2CCCN(C(=O)c3cccc(-c4ccc(F)c(F)c4)c3)C2)c1)C(=O)N1C[C@H]2C[C@@H]1CN2.Cl (stereo partly drawn) [化合物II-65, (1R,4R)-5-(2-(3-(3-(3',4'-二氟-[1,1'-联苯]-3-羰基)哌啶-3-基)苯氧基)-2-甲基丙酰基)-2,5-二氮杂二环[2.2.1]庚-2-氯化铵] | – | 亲和活性更优 | – |
| CC(C)(Oc1cccc(C2CCCN(C(=O)c3cccc(-c4ccc(F)c(F)c4)c3)C2)c1)C(=O)N1C[C@@H]2C[C@H]1CN2.Cl (stereo partly drawn) [化合物II-66, (1S,4S)-5-(2-(3-(1-(3',4'-二氟-[1,1'-联苯]-3-羰基)哌啶-3-基)苯氧基)-2-甲基丙酰基)-2,5-二氮杂二环[2.2.1]庚烷-2-氯化铵] | – | 亲和活性更优 | – |
| COc1ccc(S(=O)(=O)NC(=O)C(C)(C)Oc2cccc(C3CCCN(C(=O)c4cccc(-c5ccc(F)c(F)c5)c4)C3)c2)cc1 (centres unmarked) [化合物II-68, 2-(3-(1-(3',4'-二氟-[1,1'-联苯]-3-羰基)哌啶-3-基)苯氧基)-N-((4-甲氧基苯基)磺酰基)-2-甲基丙酰胺] | – | 亲和活性更优 | – |
